Format in all cases: cell-based
In test [1] the target is T1, PTGER2 (EP2) (Homo sapiens, UniProt P43116).
T1 construct: host or cells: HEK 293 (PathHunter PTGER2 b-arrestin cell line)
Kind of test: hEP2 b-arrestin assay (PathHunter HEK 293 PTGER2 b-arrestin cells). The conditions noted are these: antagonistic activity, beta-arrestin assay; read-out: hEP2 b-arr IC50. An outline of the steps:
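Antagonism measured as inhibition of PGE2-driven β-arrestin 2 recruitment (enzyme fragment complementation, luminescence) in engineered HEK293 EP2 cells. Agonist: 5 μM PGE2, ~EC80, 120 min at 37 °C after 15 min compound preincubation; test range 10 μM-2 nM or 1 μM-0.2 nM, duplicates, IC50 fitted.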

The target in test [2] is T2, PTGER4 (EP4) (Homo sapiens, UniProt P35408).
T2 construct: host or cells: HEK 293 (PathHunter PTGER4 b-arrestin cell line)
The test can be described thus: hEP4 b-arrestin assay (PathHunter HEK 293 PTGER4 b-arrestin cells). The conditions noted are these: antagonistic activity, beta-arrestin assay; read-out: hEP4 b-arr IC50. In outline: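 β-Arrestin recruitment to EP4 was read as enzyme-fragment-complementation chemiluminescence in stably transfected HEK 293 cells. After 15 min compound preincubation at 37 °C (ranges 10 μM–2 nM or 1 μM–0.2 nM), cells were stimulated 120 min with PGE2 at 20 nM, its EC80. IC50 values were fitted from duplicates, with repeat measurements averaged.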

In test [3] the target is T3, EP2 receptor (Homo sapiens, UniProt P43116).
T3 construct: SF295 glioblastoma cells express high endogenous EP2 and no EP4; host or cells: SF295 glioblastoma cells
Kind of test: hEP2 cAMP assay (SF295 glioblastoma cells, HTRF cAMP, PGE2 stimulation). The conditions noted are these: antagonistic activity. An outline of the steps: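 HTRF cAMP readout gave % cAMP relative to DMSO, fitted to IC50 with duplicate points. Compounds were preincubated 45 min at room temperature with EP2-expressing, EP4-negative SF295 cells in IBMX (2 mM)-containing buffer before a 30 min challenge with PGE2 at 75 nM final, its EC80.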
Background: Cyclic AMP is a second messenger, typically raised through Gs and lowered through Gi signalling.

T2 sequence (P35408 whole entry): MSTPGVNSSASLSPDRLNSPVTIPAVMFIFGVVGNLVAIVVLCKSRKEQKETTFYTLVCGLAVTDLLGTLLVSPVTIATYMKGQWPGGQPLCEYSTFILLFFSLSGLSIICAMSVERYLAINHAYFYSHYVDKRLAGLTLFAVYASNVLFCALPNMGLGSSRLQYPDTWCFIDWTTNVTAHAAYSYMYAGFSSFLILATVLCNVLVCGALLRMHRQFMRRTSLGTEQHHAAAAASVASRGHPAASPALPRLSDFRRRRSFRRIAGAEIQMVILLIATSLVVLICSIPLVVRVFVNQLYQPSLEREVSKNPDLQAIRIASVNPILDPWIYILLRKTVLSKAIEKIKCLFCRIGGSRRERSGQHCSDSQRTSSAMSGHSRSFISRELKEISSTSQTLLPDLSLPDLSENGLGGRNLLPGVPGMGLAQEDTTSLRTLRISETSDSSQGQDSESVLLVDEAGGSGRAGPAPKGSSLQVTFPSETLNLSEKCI
T1 sequence (P43116 whole entry): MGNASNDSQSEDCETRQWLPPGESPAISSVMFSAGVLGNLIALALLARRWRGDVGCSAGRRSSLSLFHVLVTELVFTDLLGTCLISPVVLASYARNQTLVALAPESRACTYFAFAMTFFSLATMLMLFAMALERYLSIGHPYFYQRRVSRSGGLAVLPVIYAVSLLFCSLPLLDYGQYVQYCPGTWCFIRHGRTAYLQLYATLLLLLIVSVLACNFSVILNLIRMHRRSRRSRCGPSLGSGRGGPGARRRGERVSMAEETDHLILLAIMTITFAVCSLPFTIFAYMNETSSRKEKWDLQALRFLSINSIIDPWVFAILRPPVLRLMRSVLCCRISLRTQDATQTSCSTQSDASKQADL
T3 sequence (P43116 whole entry): as above

What is called IC50 is the point on the concentration scale where inhibition reaches its midpoint. As to `CCCSc1cc(-c2cc(NCCc3c(C)sc4ccccc34)ncn2)ccc1C(=O)O` [Example 88, 4-{6-[2-(2-Methyl-benzo[b]thiophen-3-yl)-ethylamino]-pyrimidin-4-yl}-2-propylsulfanyl-benzoic acid], the results for the IC50 in test [1], in test [2] and in test [3] were 21 nM, 1030 nM and 11 nM, respectively.
The corresponding values for `CCCSc1cc(-c2cc(NCCc3c(C)oc4ccccc34)ncn2)ccc1C(=O)O` [Example 89, 4-{6-[2-(2-Methyl-benzofuran-3-yl)-ethylamino]-pyrimidin-4-yl}-2-propylsulfanyl-benzoic acid] are 10 nM, 1030 nM and 5 nM.
On to `Cc1sc2c(C)cccc2c1CCNc1cc(-c2ccc(C(=O)O)c(SC(C)C)c2)ncn1` [Example 90, 4-{6-[2-(2,7-Dimethyl-benzo[b]thiophen-3-yl)-ethylamino]-pyrimidin-4-yl}-2-isopropylsulfanyl-benzoic acid], for which the 50% inhibitory concentration (IC50) in test [1] turned out to be 11 nM; in test [2], 247 nM; in test [3], 35 nM.
The matching figures for `Cc1sc2ccccc2c1CCNc1cc(-c2ccc(C(=O)O)c(SC(C)C)c2)ncn1` [Example 91, 2-Isopropylsulfanyl-4-{6-[2-(2-methyl-benzo[b]thiophen-3-yl)-ethylamino]-pyrimidin-4-yl}-benzoic acid]: 20 nM, 843 nM and 10 nM.
On to `Cc1oc2ccccc2c1CCNc1cc(-c2ccc(C(=O)O)c(SC(C)C)c2)ncn1` [Example 92, 2-Isopropylsulfanyl-4-{6-[2-(2-methyl-benzofuran-3-yl)-ethylamino]-pyrimidin-4-yl}-benzoic acid], for which the IC50 in test [1] worked out at 6 nM; in test [2] it was 816 nM; in test [3] it was 6 nM.
Regarding `CCc1cc(-c2cc(NCCc3c(C)sc4c(C)cc(F)cc34)ncn2)cc(C)c1CC(=O)O` [Example 194, (2-Ethyl-4-{6-[2-(5-fluoro-2,7-dimethyl-benzo[b]thiophen-3-yl)-ethylamino]-pyrimidin-4-yl}-6-methyl-phenyl)-acetic acid], the IC50 in test [1] was 47 nM; in test [2], 96 nM; in test [3], 326 nM.
On to `Cc1sc2c(C)cc(F)cc2c1CCNc1cc(-c2ccc(C(=O)O)c(OC3CC3)c2)ncn1` [Example 195, 2-Cyclopropoxy-4-{6-[2-(5-fluoro-2,7-dimethyl-benzo[b]thiophen-3-yl)-ethylamino]-pyrimidin-4-yl}-benzoic acid], for which the concentration for half-maximal inhibition (IC50) worked out at 4 nM in test [1], 111 nM in test [2] and 6 nM in test [3].
For the compound `Cc1sc2c(C)cc(F)cc2c1CCNc1cc(-c2ccc(CC(=O)O)c(OC3CC3)c2)ncn1` [Example 196, (2-Cyclopropoxy-4-{6-[2-(5-fluoro-2,7-dimethyl-benzo[b]thiophen-3-yl)-ethylamino]-pyrimidin-4-yl}-phenyl)-acetic acid], the half-maximal inhibitory concentration (IC50) in test [1] is 16 nM; in test [2], 99 nM; in test [3], 50 nM.
Consider `CCOc1cc(-c2cc(NCCc3c(C)sc4c(C)cc(F)cc34)ncn2)ccc1-c1cc(O)no1` [Example 202, 5-(2-Ethoxy-4-{6-[2-(5-fluoro-2,7-dimethyl-benzo[b]thiophen-3-yl)-ethylamino]-pyrimidin-4-yl}-phenyl)-isoxazol-3-ol [tautomeric form: 5-(2-ethoxy-4-(6-((2-(5-fluoro-2,7-dimethylbenzo[b]thiophen-3-yl)ethyl)amino)pyrimidin-4-yl)phenyl)isoxazol-3(2H)-one]], for which the IC50 in test [1] came to 17 nM; in test [2] it was 100 nM; in test [3], 75 nM.

The values are drawn from patent publication US11325899B2, “Benzofurane and benzothiophene derivatives as PGE2 receptor modulators” (IDORSIA PHARMACEUTICALS LTD, priority 2017, dated 2022).
